Laboratory results as given in ChEMBL document CHEMBL1156379, “Furanosesquiterpenoids of Commiphora myrrha” (J Nat Prod, 2001).

Test system: MCF7; call rule not given here
Test: Cytotoxicity against human MCF7 cells after 15 days by clonogenic assay
Type: functional, cell-based

C=C1Cc2occ(C)c2C(=O)C[C@H](C)C[C@@H]2O[C@@H]12 (relative stereo) showed an IC50 (Homo sapiens, MCF7, 360 h, read-out: IC50) of 40 µM.
For C=C1/C=C/[C@H](OC)[C@@H](C)CC(=O)c2c(C)coc2C1 (relative stereo), the IC50 (mcf7) was “Not Active”.
For CO[C@H]1/C=C(\C)Cc2occ(C)c2C(=O)C[C@H](C)C1 (relative stereo), the IC50 (mcf7) was “Not Active”.
CO[C@H]1/C=C(/C)Cc2occ(C)c2C(=O)[C@@H](OC(C)=O)[C@H](C)C1 (relative stereo) was tested, and the IC50 (mcf7) was “Not Active”.
